Experimental data published in US8048924B2, “Methods and compositions employing 4-aminophenylacetic acid compounds” (Biocon Limited, priority 2001, dated 2011).

Assay: Metabolism of APAZA and sulfasalazine following oral delivery to rats (urine and feces, HPLC)
Conditions: rat
Description: The degradation of the APAZA™ therapeutic agent (5-(4-carboxymethyl-phenylazo)-2-hydroxy-benzoic acid), and sulfasalazine (used as a control) and the generation of their metabolites when these compounds were orally dosed to rats were measured to be able to confirm that both the APAZA™ therapeutic agent and sulfasalazine undergo bacterial azo reduction and yield their metabolites, 5-aniinosalicylic acid (5-ASA) and sulfapyridine for sulfasalazine, 5-aminosalicylic acid (5-ASA) and 4-aminophenyl acetic acid (4-APAA) for the APAZA™ therapeutic agent.
This experiment was performed to confirm that an azo compound, the APAZA™ therapeutic agent, undergoes a bacterial reduction process and yields its metabolites in in-vivo metabolism. The quantification of its metabolites was also carried out. Sulfasalazine, not part of the present invention, was used as a control since similar azo bond cleavage by bacteria occurs with it, which results in 5-aminosalicylic acid and sulfapyridine as its metabolites. Both the APAZA™ therapeutic agent and sulfasalzine were degraded and their metabolites were produced as expected.
A total of 8 rats were used for the experiment and methylcellulose was used as a vehicle. The dosage amount was 100 mg/kg per rat. […] Both urine and feces were collected over 4 days and analyzed by HPLC. […]

## Nc1ccc(O)c(C(=O)O)c1 [5-ASA, 5-amino-2-hydroxy-benzoic acid, reference compound]
  conversion of 5-ASA in vivo: quickly converted to acetylated 5-ASA
